The nature of data set [1]: Simulated sustained release in a dog model. It is filed as in vivo. Conditions: sustained presentation over eight hours. As for the experimental part: It has been discovered that the shape of the PK curve and not just the AUC can make a difference to efficacy. Specifically, having a plasma concentration above a threshold for several hours per day (e.g., 4-8 hours) may be more efficacious than maintaining a concentration just below that threshold for 24 hours a day. […] In this model, the drug conserved by avoiding a high single dose and high Cmax was distributed across several hours, giving a several hour period in which the plasma concentration of acamprosate was higher than the plasma concentration after administration of a single dose of the immediate release version.
In a dog study of simulated sustained release of acamprosate it was shown that through sustained release a higher residence time above a threshold can be attained than by giving the same dose all at once. Combining the results from the dog study with the implications of the reported human cases we contemplate that acamprosate delivered by a sustained release system can relieve symptoms of TD and other neuropsychiatric disorders given once or twice a day. […] Thus it appears that a total daily dose of less than one gram of sustained release acamprosate, given on a twice a day basis, or perhaps even on a once a day basis, could be adequate to treat TD in the case examples. […]

For data set [2] the following is noted: high solubility and low permeability; cited from earlier work.

For `CC(=O)NCCCS(=O)(=O)O` [Acamprosate, 3-(acetylamino)-1-propanesulfonic acid], the “residence time above a threshold concentration vs immediate release of the same dosage” value in data set [1] is given as “significantly longer residence time”. In addition, the “Biopharmaceuticals Classification System (BCS) class” value in data set [2] is listed as “Class III”.

The record behind these values is US20160081938A1, “ACAMPROSATE FORMULATIONS, METHODS OF USING THE SAME, AND COMBINATIONS COMPRISING THE SAME” (Synchroneuron Inc., priority 2013, published 2016).
